In patent US5594144A, “Tropolone derivatives and pharmaceutical composition thereof for preventing and treating ischemic diseases” (The Upjohn Company, priority 1990, dated 1997):

Experiments:
[1] = test system: Brain microsomal fractions; test: in vitro Anti-lipid peroxidation effect (TBAR production, Fe3+-ADP/NADPH); type: biochemical, rat (SD strain, male)
Description: 1. in vitro Anti-lipid peroxidation effect
Brain microsomal fractions were prepared from male rats of SD strain, and a portion (0.2 mg protein) was incubated at 37° C. for 15 minutes with a mixture of Fe^3+ (0.1 mM)--ADP (0.5 mM) in the presence or absence of the test compound, in final volume of 1 ml of 10 mM HEPES, 150 mM KCl, 0.2 mM NADPH, pH 7.4. After incubation, 1.5 ml of TCA-TBA-HCl reagent (16.7% trichloroacetic acid, 0.4% thiobarbituric acid, 0.278N hydrochloric acid) was added and the reaction mixture was heated in a boiling water for 15 minutes. After cooling in ice-bath, the reaction mixture was centrifuged, and the absorbance of the supernatant at 535 nm was measured. The amount of thiobarbituric acid reactive substance (TBAR) was obtained by calculation using an extinction coefficient of 1.56×10^5 […]. […] The results are shown in Table 1A for compounds of the formulas IA, IB, and IC, respectively. The compounds with highest inhibition rate have the greatest anti-lipid peroxidation effect.

[2] = test system: pig right coronary artery; test: in vitro Ca-antagonism (high K+ induced 45Ca-influx); type: cell-based; details: Sus scrofa, K+ 75 mM
Description: 2. in vitro Ca-antagonism
A strip of pig right coronary artery was depolarized with high K^+ (75 mM) for 30 minutes to induce voltage dependent ^45 Ca-influx. The extracellular ^45 Ca was chelated by adding EGTA and removed by washing, then the strip was lysed at 100° C. ^45 Ca in this lysate was measured as intracellular ^45 Ca by a scintillation counter. The concentration of the test compound was 10^-7, 10^-6, 10^-5 M, and applied until depolarization by K^+ was completed. Ratio of inhibition at various concentrations of the test compounds for increasing the intracellular ^45 Ca by K^+ was determined. The compound with high inhibition ratio has strong Ca-antagonism.

SMILES	Anti-Lipid Peroxidation (% inhibition) 10 μM [1] [%]	Anti-Lipid Peroxidation (% inhibition) 50 μM [1] [%]	inhibition at 10 µM [2] [%]
COc1ccc(CCN2c3ccccc3SC2c2ccc(C(C)C)cc(OC)c2=O)cc1OC (stereo not drawn) [Compound 8B, 2-(2'-oxo-3'-methoxy-5'-isopropyl-3',5',7'-cycloheptatrienyl)-3-[2-(3,4-dimethoxyphenyl)ethyl]benzothiazoline]	93.4	93.8	–
CCOc1cc(C(C)C)ccc(CN2CCN(C(c3ccc(F)cc3)c3ccc(F)cc3)CC2)c1=O [Compound 12A, 7-[4-(4,4'-difluorobenzhydryl)piperazino-1-methyl]-2-ethoxy-4-isopropyl-2,4,6-cycloheptatrien-1-one]	21.4	50.4	72
CC(C)c1ccc(CN2CCN(C(c3ccc(F)cc3)c3ccc(F)cc3)CC2)c(=O)c(NCCNc2ccccn2)c1 [Compound 9C, 7-[4-(4,4'-difluorobenzhydryl)piperazino-1-methyl]-4-isopropyl-2-[N-2-(2-pyridylamino)ethylamino]-2,4,6-cycloheptatrien-1-one]	88.1	91.6	38
COc1cc(C(C)C)ccc(C2Sc3ccccc3N2Cc2ccc3ccccc3n2)c1=O (stereo not drawn) [Compound 9B, 2-(2'-oxo-3'-methoxy-5'-isopropyl-3',5',7'-cycloheptatrienyl)-3-(2-quinolyl)methylbenzothiazoline]	94.9	96.6	–
COc1cc(C(C)C)ccc(C2Sc3ccccc3N2Cc2ccccn2)c1=O (stereo not drawn) [Compound 4B, 2-(2'-oxo-3'-methoxy-5'-isopropyl-3',5',7'-cycloheptatrienyl)-3-(2-picolyl)benzothiazoline]	95.7	99.3	–
CC(C)c1ccc(C2Sc3ccccc3N2CCc2ccccc2)c(=O)c(N2CCNCC2)c1 (stereo not drawn) [Compound 15B, 2-[2'-oxo-3'-(1-piperazinyl)-5'-isopropyl-3',5',7'-cycloheptatrienyl]-3-phenethylbenzothiazoline]	93.0	94.4	–
COc1cc(C(C)C)ccc(C2Sc3ccccc3N2Cc2cccnc2)c1=O (stereo not drawn) [Compound 5B, 2-(2'-oxo-3'-methoxy-5'-isopropyl-3',5',7'-cycloheptatrienyl)-3-(3-picolyl)benzothiazoline]	95.9	100	–
CC(C)c1ccc(C2Sc3ccccc3N2CCc2ccccc2)c(=O)c(NCCN(C)C)c1 (stereo not drawn) [Compound 16B]	91.2	95.1	–
CC(C)c1ccc(CN2CCN(C(c3ccc(F)cc3)c3ccc(F)cc3)CC2)c(=O)c(OCCCN(C)CCc2ccccc2)c1 [Compound 18A, 7-[4-(4,4'-difluorobenzhydryl)piperazino-1-methyl]-2-[3-(N-methyl-N-phenethylamino)propoxy]-4-isopropyl-2,4,6-cycloheptatrien-1-one]	37.0	93.1	–
COc1cc(C(C)C)ccc(C2Sc3ccccc3N2CCCN2CCN(C(c3ccc(F)cc3)c3ccc(F)cc3)CC2)c1=O (stereo not drawn) [Compound 13B, 2-(2'-oxo-3'-methoxy-5'-isopropyl-3',5',7'-cycloheptatrienyl)-3-{3-[4-(4',4'-difluorobenzhydryl)piperazin-1-yl)propyl}benzothiazoline]	91.8	94.4	–
COc1cc(C(C)C)ccc(C2Sc3ccccc3N2CCc2ccccn2)c1=O (stereo not drawn) [Compound 7B, 2-(2'-oxo-3'-methoxy-5'-isopropyl-3',5',7'-cycloheptatrienyl)-3-[2-(2-pyridyl)ethyl]benzothiazoline]	91.9	94.3	–
